Results on 3 compounds are retold here after patent publication US9642860B2, “Combinations of corroles and statins” (Technion Research & Development Foundation Limited, priority 2011, dated 2017).

Series [1] concerns the target T1, HMG-CoA reductase (HMGCR) (Homo sapiens, UniProt P04035).
T1 sequence (P04035 426-888 limits assumed): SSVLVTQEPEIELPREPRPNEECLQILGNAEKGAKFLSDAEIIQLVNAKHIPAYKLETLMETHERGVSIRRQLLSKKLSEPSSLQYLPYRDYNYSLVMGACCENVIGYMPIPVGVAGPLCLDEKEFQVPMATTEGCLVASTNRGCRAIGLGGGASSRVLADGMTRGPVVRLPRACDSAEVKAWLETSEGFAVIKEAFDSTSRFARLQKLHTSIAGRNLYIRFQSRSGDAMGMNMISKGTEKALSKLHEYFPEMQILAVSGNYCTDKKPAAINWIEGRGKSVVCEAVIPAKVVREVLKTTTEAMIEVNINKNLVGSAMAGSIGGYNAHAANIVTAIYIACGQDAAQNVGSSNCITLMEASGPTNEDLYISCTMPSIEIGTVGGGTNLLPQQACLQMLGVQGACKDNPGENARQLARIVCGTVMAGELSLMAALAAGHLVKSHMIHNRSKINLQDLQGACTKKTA
Put plainly: HMG-CoA reductase-catalyzed reaction inhibition (CoA byproduct by HPLC). The format is biochemical. To be noted: read-out: Inhibition Percent.
Experimental: The effects of 1-Fe and statins fluvastatin and pravastatin alone and in combination on mevalonic acid production were tested using the following in vitro method.
Substrates of the HMGCR catalyzed reaction, NADPH (400 μM] and HMGCR (200 μM) were mixed in activity buffer comprising 100 mM sodium phosphate buffer, 1 mM ethylenediaminetetraacetic acid (EDTA), 10 mM dithiothreitol, 2% dimethyl sulfoxide, and 1 mM magnesium sulphate, the mixture having a pH of 6.8. 1-Fe, PS, or FS (alone or as a corrole statin combination) were added to the substrate mixture at various concentrations, followed by addition of HMGCR (0.48 μM). Reactions were then incubated at 37° C. for 15 minutes, followed by injection of 80 μl (microliter) to a reverse phase GraceSmart RP18 high performance liquid chromatography column (HPLC). […] As mevalonate concentration is difficult to identify in reaction mixture because it has no absorbance in the UV range, the yield of each reaction was calculated from the amount of CoA byproduct formed in the reaction after subtracting the baseline amount of CoA present as an impurity in the commercial HMG-CoA determined by injecting the substrate mixture alone. The inhibition percentage was calculated from the yield of each reaction relative to the yield of the enzymatic reaction without the addition of inhibitor.

The next series has as its system J774.A1 macrophages. Put plainly: Cholesterol biosynthesis model: acetate incorporation into cholesterol in macrophages. The class given is cell-based, Murine. To be noted: 24 h incubation. The source says:
Accumulation of cholesterol within arterial macrophages is a step in the development of atherosclerosis (M. Aviram 2004). Statins can lower the levels of cholesterol biosynthesis in arterial macrophages. The cholesterol biosynthesis model which was employed determined the effect of various agents (pravastatin alone, fluvastatin alone, 1-Fe alone in various concentrations, 1-Fe in combination with pravastatin and 1-Fe in combination with fluvastatin) on reduction of cholesterol biosynthesis in macrophages.
Murine J774.A1 macrophages were cultured in DMEM (Dulbecco's Modified Eagle Medium) containing 5% FCS (fetal calf serum) in a humidified incubator. […] The effect of different concentrations of 1-Fe on cholesterol biosynthesis from acetate and on 1-Fe cellular uptake were determined by incubating J774.A1 macrophages for 24 h (hours) with 0, 5, 20 or 50 μM (micromolar) of 1-Fe. Intracellular corrole concentrations were then determined by a chemiluminescent method, and cholesterol biosynthesis was assayed by measuring acetate incorporation into cholesterol. […] Unesterified cholesterol spots were visualized by iodine vapor (using appropriate standard), scraped into scintillation vials and counted in a β-counter. 0.1 M (molar) NaOH (sodium hydroxide) was added to the remains of the cells, and cellular proteins were measured the following day by the Lowry method. […]

For series [2] the following is noted: high dose 80 mg, over five years, compared to moderate dose statins; cited from earlier work.

One may read the inhibition as the drop in the measured response relative to a control, in per cent.

In the case of `CC(C)n1c(/C=C/C(O)CC(O)CC(=O)O)c(-c2ccc(F)cc2)c2ccccc21` (centres unmarked) [FS, fluvastatin], the inhibition at 1 µM in series [1] (FS 1 micromolar alone) was 9%. In addition, the “reduction of macrophage biosynthesis of cholesterol” value in the series with J774.A1 macrophages (20 μM FS alone) was determined as 25%.

Turning to `CC[C@H](C)C(=O)O[C@H]1C[C@H](O)C=C2C=C[C@H](C)[C@H](CC[C@@H](O)C[C@@H](O)CC(=O)O)[C@H]21` [PS, pravastatin], the inhibition at 5 µM in series [1] (PS 5 micromolar alone) came to 17%. Moreover, the “reduction of macrophage biosynthesis of cholesterol” value with J774.A1 macrophages (200 μM PS alone) was 10%.

In the case of `CC(C)c1c(C(=O)Nc2ccccc2)c(-c2ccccc2)c(-c2ccc(F)cc2)n1CC[C@@H](O)C[C@@H](O)CC(=O)O` [atorvastatin], in series [2], the “increase in the chance of developing Type 2 diabetes” value was 12%.
